Results published in US20080267948A1, “Croos-B Structure Binding Compounds” (priority 2005, published 2008).
“Also recorded” adds a separate entry of the source.

Key:
human blood platelets = assay: Platelet aggregation (aggregometric assay with washed platelets); assay type: cell-based
Procedure: The influence of amyloid-β(1-40) E22Q Dutch type (Aβ) peptide aggregates with cross-β structure conformation on blood platelet aggregation was tested with washed platelets in an aggregometric assay. Freshly drawn human aspirin free blood was mixed gently with citrate buffer to avoid coagulation. Blood was spinned for 15′ at 150*g at 20° C. and supernatant was collected; platelet rich plasma (PRP). […] After spinning down the platelets upon centrifugation for 15′ at 330*g at 20° C., the pellet was resuspended in HEPES-Tyrode buffer pH 6.5. Prostacyclin was added to a final concentration of 10 ng/ml, and the solution was centrifuged for 15′ at 330*g at 20° C., with a soft brake. The pellet was resuspended in HEPES-Tyrode buffer pH 7.2 in a way that the final platelet number was adjusted to 200,000/μl. Platelets were kept at 37° C. for at least 30′, before use in the assays, to ensure that they were in the resting state.
Aggregation of platelets was monitored in an aggregometer (Chrono-Log Corporation, Havertown, Pa., USA) for 15 minutes at 37° C. with a magnet stirring speed of 900 rpm. First, 270 μl of platelet solution was pipetted in the cuvettes and after 1 minute of stirring, 30 μl of preincubated (5 minutes, RT) Aβ and Hematein solution or control was added. The hematein stock was 10 mg/ml in HEPES-Tyrode buffer. The Aβ stock was 1 mg/ml. For blank readings unstirred HEPES Tyrode buffer was used. The aggregation is expressed as the percentage of the light transmission (0-100%). As a positive control, synthetic thrombin receptor activating peptide (TRAP) induced platelet aggregation was used. A control experiment was performed to study the influence of the red colour of hematein on the light transmission. For this, 4 μM TRAP was added at time 1 minute to the platelets, then hematein was added after 6 minutes of aggregation. The platelets were used for not more than 4 hours after isolation to reduce variations in sensitivity amongst subsequent measurements.
Ellagic acid was first dissolved to 100 mg/ml in DMSO, and then further diluted to 1 mg/ml in HBS buffer. Final concentrations of Aβ and ellagic acid in the aggregation assay were 50 μg/ml and 25/50 μg/ml, respectively. In addition, the influence of ellagic acid alone on platelet aggregation was tested. As a control, the influence of 0.08% DMSO on 50 μg/ml Aβ-induced platelet aggregation was analyzed. The 100% DMSO of the ellagic acid stock was diluted 2000 and 4000×, resulting in […] final DMSO concentrations in the aggregation assay.

ovalbumin = biological target: T1, ovalbumin (Gallus gallus, UniProt P01012); assay: Transmission electron microscopy of ovalbumin heated in the presence of small compounds; set-up: species or system chicken; settings: 1 mg/ml ovalbumin heated with 1 mg/ml compound
T1 construct: purchased Sigma A5503
T1 sequence (P01012 1-386): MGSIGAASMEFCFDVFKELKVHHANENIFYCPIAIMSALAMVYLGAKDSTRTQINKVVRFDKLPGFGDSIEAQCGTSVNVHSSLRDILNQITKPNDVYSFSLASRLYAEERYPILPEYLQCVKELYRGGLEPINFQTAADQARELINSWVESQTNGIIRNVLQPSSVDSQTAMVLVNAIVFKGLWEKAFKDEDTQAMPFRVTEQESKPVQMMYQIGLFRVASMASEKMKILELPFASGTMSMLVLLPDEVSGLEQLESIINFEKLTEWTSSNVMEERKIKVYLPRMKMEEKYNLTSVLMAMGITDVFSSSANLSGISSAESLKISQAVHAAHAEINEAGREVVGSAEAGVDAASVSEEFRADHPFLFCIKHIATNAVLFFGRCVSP
Procedure: For TEM analyses grids were prepared according to standard procedures. Ovalbumin samples at 1 mg/ml were applied to 100-mesh copper grids with carbon coated Formvar (Merck, Germany), and subsequently washed with PBS and H2O. Grids were applied to droplets of 2% (m/v) methylcellulose with 0.4% (m/v) uranylacetate pH 4. After a 2-minutes incubation grids were dried on a filter. Images were recorded at 80 kV, at suitable magnifications on a JEM-1200EX electron microscope (JEOL, Japan).

tPA/plasminogen [1] = biological target: T2, tPA/plasminogen (Homo sapiens, UniProt P00750); assay: tPA/plasminogen activation by OVA heated in the presence of compounds (substrate PNAPEP1751); assay type: biochemical; settings: 25 μg/ml OVA, 25 μg/ml compound, […] DMSO
T2 construct: purchased Boehringer Ingelheim Actilyse
Procedure: Heated OVA, either in PBS/1% DMSO (positive control), or in the same buffer in the presence of 1 mg/ml of the compounds, was used 40-fold diluted in the assay. Negative control was buffer without OVA. […] In addition, it was assessed whether the compounds interfere with absorbance readings at 405 nm, with converted chromogenic substrate. […] The yellow solution is divided over wells of an ELISA plate. […] Signals are compared and related to the control.

tPA = tPA (Homo sapiens, UniProt P00750); assay: tPA serine protease activity with OVA heated in the presence of compounds (substrate S-2765); assay type: biochemical; set-up: purchased Boehringer Ingelheim Actilyse; settings: OVA heated with 1 mg/ml compound, 80-, 160- or 320-fold diluted, 100 nM tPA
Procedure: For this purpose, the influence of the compounds on heat-denaturation of OVA was analyzed (see above: Thioflavin T fluorescence measurements). Heated OVA at 1 mg/ml in PBS in the presence or absence of 1 mg/ml of the twelve compounds listed in Table 7 in PBS/DMSO (final DMSO concentration 1%) was used 80-fold or 160-fold or 320-fold diluted (final heated OVA concentration and compound concentration was 12.5 or 6.3 or 3.1 μg/ml; final DMSO concentration was 0.013% and 0.006% and 0.003%).

tPA/plasminogen [2] = biological target: T2, tPA/plasminogen; assay: tPA/plasminogen activation by pre-formed misfolded OVA in the presence of compounds; assay type: biochemical; settings: 80-fold or 160-fold diluted compound and misfolded OVA stocks of 1 mg/ml
Procedure: […] Negative control was buffer without OVA. […] In addition, it was assessed whether the compounds interfere with absorbance readings at 405 nm, with converted chromogenic substrate. […] The yellow solution is divided over wells of an ELISA plate. […] Signals are compared and related to the control.

heat-denatured ovalbumin = biological target: T3, heat-denatured ovalbumin (Gallus gallus, UniProt P01012); assay: Thioflavin T fluorescence of ovalbumin and small compounds; set-up: species or system chicken; settings: 1 mg/ml compound, 1 mg/ml OVA
T3 construct: purchased Sigma A5503
T3 sequence (P01012 1-386): T1 sequence (P01012 1-386)
Procedure: To establish the enhancement of Thioflavin T fluorescence by ovalbumin preparations, 90 μl of 25 μM ThT-solution in 50 mM Glycine buffer (pH 9.0) was added to 10 μl sample in duplicate wells of black 96-wells plates. Heat-denatured ovalbumin at 1 mg/ml in PBS with no addition, DMSO at a final concentration of 1% v/v, or 1 mg/ml of the compounds listed in Table 7, was used. Compound stocks are 100 mg/ml in DMSO. In addition, ovalbumin at 1 mg/ml with the same additions was first heat denatured and subsequently used in the fluorescence assay. Heat denaturation was according to the protocol given above. Fluorescence of duplicates was measured on a Thermo Fluoroskan Ascent 2.5, at 435 nm excitation and 485 nm emission wavelengths.

Hb-AGE = biological target: T4, Hb-AGE (Homo sapiens, UniProt P68871+P69905); assay: ELISA binding of tPA to immobilized Hb-AGE after pre-incubation with compounds; settings: Hb-AGE first overlayed with compound (concentration series), then tPA
T4 construct: purchased Sigma-Aldrich H7379
Procedure: Compounds were now diluted 10× in PBS/0.1% Tween20 (500 μg/ml compound). […] With the selection, similar binding assays are performed with misfolded OVA and Aβ. Finally, concentration series of the selected compounds are used in the binding studies.

amyloid-β(1-40) E22Q = biological target: T5, amyloid-β(1-40) E22Q (Homo sapiens, UniProt P05067, E693Q); assay: ELISA binding of tPA to immobilized Aβ after pre-incubation with compounds; settings: Aβ first overlayed with compound (concentration series), then tPA
T5 construct: For similar ELISA's with DOVA and Aβ(1-40) E22Q, 1 μg/ml DOVA or Aβ was coated; purchased Peptide facility, Dutch Cancer Institute, Amsterdam; host or cells: synthetic peptide
Procedure: Compounds were now diluted 10× in PBS/0.1% Tween20 (500 μg/ml compound). […] With this approach a further selection of the compounds was achieved. Now, compounds that at least interact with HB-AGE are selected. With the selection, similar binding assays are performed with misfolded OVA and Aβ. Finally, concentration series of the selected compounds are used in the binding studies.

T2 sequence (P00750 36-562): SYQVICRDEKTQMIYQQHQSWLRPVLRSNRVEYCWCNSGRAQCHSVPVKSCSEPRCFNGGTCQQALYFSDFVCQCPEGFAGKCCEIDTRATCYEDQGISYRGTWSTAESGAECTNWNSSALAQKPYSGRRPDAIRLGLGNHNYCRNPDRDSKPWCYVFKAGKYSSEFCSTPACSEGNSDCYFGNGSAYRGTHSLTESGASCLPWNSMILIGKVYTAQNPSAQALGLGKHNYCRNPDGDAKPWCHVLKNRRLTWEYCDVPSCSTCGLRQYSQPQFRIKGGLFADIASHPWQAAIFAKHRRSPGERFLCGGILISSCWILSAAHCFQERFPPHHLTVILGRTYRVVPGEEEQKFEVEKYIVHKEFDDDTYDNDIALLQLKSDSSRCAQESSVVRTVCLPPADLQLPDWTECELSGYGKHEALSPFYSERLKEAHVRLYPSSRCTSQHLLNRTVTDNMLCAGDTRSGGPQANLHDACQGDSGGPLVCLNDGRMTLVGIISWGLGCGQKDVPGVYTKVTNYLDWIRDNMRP
T5 sequence (P05067 672-711 E693Q): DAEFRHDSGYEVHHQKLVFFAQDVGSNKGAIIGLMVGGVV
T4 sequence (P69905 2-142 limits assumed): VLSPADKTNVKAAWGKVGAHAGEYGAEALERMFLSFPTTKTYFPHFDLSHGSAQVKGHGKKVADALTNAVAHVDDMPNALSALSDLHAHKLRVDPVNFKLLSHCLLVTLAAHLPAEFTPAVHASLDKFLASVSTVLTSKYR
T4 sequence (P68871 2-147 limits assumed): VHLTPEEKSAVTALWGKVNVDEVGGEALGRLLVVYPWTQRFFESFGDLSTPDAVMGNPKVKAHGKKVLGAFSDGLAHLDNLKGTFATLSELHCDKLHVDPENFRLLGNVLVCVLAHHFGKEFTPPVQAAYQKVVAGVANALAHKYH
Sequence of tPA (P00750 36-562): as the sequence (P00750 36-562) above

## O=C1C=C2CC3(O)COc4c(ccc(O)c4O)C3=C2C=C1O (stereo not shown) [compound 152, Hematein]
Human blood platelets; 100 μg/ml Aβ and 333 μg/ml haematein added together
  influence on Aβ induced platelet aggregation: almost completely blocked; also recorded: potent inhibitor of misfolded Aβ-induced platelet aggregation; also recorded: Inhibition of Aβ-induced platelet aggregation
Human blood platelets; TRAP and haematein pre-mixed
  reduction of TRAP-induced platelet aggregation: approximately 10%
ovalbumin; listed as Haematein
  appearance of ovalbumin heated in the presence of compound on TEM image: No large aggregates. Small aggregates at a lower
ovalbumin; listed as haematein
  appearance of ovalbumin heated in the presence of compound on TEM image: less OVA aggregates after heating in the presence of the
tPA/plasminogen [1]
  influence on tPA/plasminogen activation by OVA pre-heated in the presence of compound: Inhibition of tPA/plasminogen activation by OVA pre-heated
tPA
  influence on tPA protease activity of OVA heated in the presence of compound: Potentiation of tPA protease activity
tPA/plasminogen [2]
  influence on tPA/plasminogen activation by pre-formed misfolded OVA: Full block of tPA/plasminogen activation by misfolded OVA
heat-denatured ovalbumin
  influence on Thioflavin T fluorescence with misfolded OVA: Inhibition on Thioflavin T fluorescence with misfolded OVA
Hb-AGE
  influence on tPA binding to immobilized Hb-AGE: Inhibited tPA binding to immobilized misfolded protein (Hb-
amyloid-β(1-40) E22Q
  influence on tPA binding to immobilized Aβ: Stimulated tPA binding to immobilized misfolded protein (Aβ,
